US20240240226A1, “FLUOROGENIC ASSAY FOR RAPID SCREENING OF BACTERIAL BETA-LACTAMASE ACTIVITY” (The Board of Trustees of the Leland Stanford Junior …, priority 2021, published 2024)
Each block holds one molecule with its values, some of them ahead of it.

Assays:
esterase = test: DARR response to esterase and H2O2; type: biochemical; conditions: esterase 1 μg/mL, different concentrations of H2O2, room temperature
Method: FIG. 11 illustrates that esterase sensitizes DARR in response to H2O2. a) Structure of DARR and its hydrolysis by esterase and oxidation into fluorescent resorufin by H2O2. b) Fluorescence enhancement of DARR treated with esterase (1 μg/mL) and different concentrations of H2O2 at room temperature. Data were collected on a Tecan Safire microplate reader with excitation at 570 nm and emission at 600 nm. A.U. indicates arbitrary units.
As oxidation is the essential step in converting β-lactamase/esterase processed CDA to resorufin, the stability of CDA was evaluated in different concentrations of H2O2 (FIG. 2a). […] The sulfur center of CDA was also stable in H2O2 (1 mM) (FIG. 9).

[1] = molecular target: T1, horseradish peroxidase (HRP) (Armoracia rusticana, UniProt P00433); test: Amplex red fluorescence turn-on with HRP and H2O2; type: biochemical; conditions: HRP 1 unit/mL, H2O2 1 uM, 10 μM AR in PBS, room temperature, 5 min
T1 sequence (P00433 31-338): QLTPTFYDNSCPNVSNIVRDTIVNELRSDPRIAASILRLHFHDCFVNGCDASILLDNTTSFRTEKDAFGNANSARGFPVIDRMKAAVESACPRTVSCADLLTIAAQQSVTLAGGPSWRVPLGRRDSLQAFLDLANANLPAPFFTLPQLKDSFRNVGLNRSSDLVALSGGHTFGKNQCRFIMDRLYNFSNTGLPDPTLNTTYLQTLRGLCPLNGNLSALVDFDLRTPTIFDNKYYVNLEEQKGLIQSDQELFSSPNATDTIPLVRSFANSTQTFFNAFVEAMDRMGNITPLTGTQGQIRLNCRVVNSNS
Method: FIG. 6 illustrates the fluorescence spectra of CDA and Amplex red. a) Fluorescent emission spectra of PBS, CDA, and AR (10 μM probes in PBS; excitation, 525 nm). b) Fluorescent emission spectra of CDA treated with esterase (1 μg/mL), TEM-1 Bla (100 nM) and H2O2 (1 mM) at room temperature for 8 hours. c) Fluorescent emission spectra of AR and AR treated with HRP and H2O2 at room temperature for 5 min (10 μM AR in PBS, HRP 1 unit/mL, H2O2 1 uM) (excitation, 525 nm). A.U. indicates arbitrary units.
The synthesis of CDA is outlined in Scheme 1 (FIG. 28). DARR was prepared from resazurin sodium salt through reduction and acetylation (Han et al., Chemistry (2016) 11: 818-822) and conjugated to the oxidized cephalosporin chloride with a self-immolative linker 4-mercaptobenzyl alcohol to afford CDA after reduction and deprotection. When incubated with a recombinant class A cephalosporin-hydrolyzing β-lactamase TEM-1 (TEM-1 Bla, FIGS. 7 and 8), esterase, and hydrogen peroxide (H2O2), CDA generated approximately 1200-fold fluorescence turn-on (FIGS. 1b and 6b).

[2] = pH=8; cited from earlier work

response to esterase (esterase): fast response to esterase
Compound: CC(=O)Oc1ccc2c(c1)Oc1cc(OC(C)=O)ccc1N2 [DARR, 10H-phenoxazine-3,7-diyl diacetate]

fluorescence turn-on [1]: 413 fold
Compound: CC(=O)N1c2ccc(O)cc2Oc2cc(O)ccc21 [Amplex red, 10-Acetyl-3,7-dihydroxyphenoxazine]

Compound: O=c1ccc2nc3ccc(O)cc3oc-2c1 [resorufin]
fluorescence quantum yield ϕ [2]: 0.75
